The values below come from ChEMBL document CHEMBL3272315, “Synthesis of angiotensin II antagonists containing N- and O-methylated and other amino acid residues” (J Med Chem, 1976).

In experiment [1] the test system is Rattus norvegicus. Briefly: Induction of blood pressure in vagotomized and ganglion-blocked rat at 6000 ng/kg/min, iv measured at 10 mins. Format: functional.
For experiment [2], the system named is Rattus norvegicus. The experiment in a line: Induction of blood pressure in vagotomized and ganglion-blocked rat at 6000 ng/kg/min, iv measured at 3 mins. Format: functional.
The subject of experiment [3] is Rattus norvegicus. The experiment in a line: Induction of blood pressure in vagotomized and ganglion-blocked rat at 250 ng/kg/min, iv measured at 10 mins. Format: functional.
The nature of experiment [4]: Antagonist activity at angiotensin AT2 receptor in isolated cat adrenal medulla. The format is tissue-based, Felis catus.
The test system of experiment [5] is Rattus norvegicus. Briefly: Induction of blood pressure in vagotomized and ganglion-blocked rat at 250 ng/kg/min, iv measured at 3 mins. The format is functional.
The subject of experiment [6] is Rattus norvegicus. Briefly: Potentiation of angiotensin 2-induced of blood pressure in vagotomized and ganglion-blocked rat at 250 ng/kg/min, iv relative to before compound infusion. The format is functional.
For experiment [7], the species on record is Rattus norvegicus. The experiment in a line: Induction of pressor in vagotomized and ganglion-blocked rat assessed as initial pressor activity relative to angiotensin 2. The format is functional.
Another experiment is filed under the species Felis catus. The experiment in a line: Agonist activity at angiotensin AT2 receptor in isolated cat adrenal medulla assessed as secretory activity relative to angiotensin 2. The format is tissue-based.
Experiment [8] relates to Rattus norvegicus. The experiment in a line: Induction of blood pressure in vagotomized and ganglion-blocked rat at 250 ng/kg/min, iv measured at 30 mins. Format: functional.
In experiment [9] the test system is Rattus norvegicus. Briefly: Induction of blood pressure in vagotomized and ganglion-blocked rat at 6000 ng/kg/min, iv measured at 30 mins. The format is functional.
A short description of experiment [10]: Antagonist activity at angiotensin AT2 receptor in rabbit aortic strips assessed as inhibition of angiotensin 2- myotropic mediated response. The settings on record: Oryctolagus cuniculus; read-out: pA2 (converted).
Experiment [11] deals with Rattus norvegicus. Briefly: Potentiation of angiotensin 2-induced of blood pressure in vagotomized and ganglion-blocked rat at 6000 ng/kg/min, iv relative to before compound infusion. Format: functional.
For experiment [12], the system named is Rattus norvegicus. Briefly: Induction of blood pressure in rat at 250 ng/kg/min, iv measured at 3 mins (reference value: 0.78 +/- 0.26 mmHg). Format: functional.
Experiment [13] concerns Rattus norvegicus. Briefly: Induction of blood pressure in acute adrenalectomized rat at 250 ng/kg/min, iv measured at 3 mins (reference value: 0.78 +/- 0.26 mmHg). The format is functional.
The subject of experiment [14] is Rattus norvegicus. The experiment in a line: Induction of blood pressure in acute adrenalectomized rat at 250 ng/kg/min, iv measured at 30 mins (reference value: 3.66 +/- 0.74 mmHg). The format is functional.
For experiment [15], the system named is Rattus norvegicus. The experiment in a line: Potentiation of angiotensin 2-induced blood pressure in acute adrenalectomized rat at 250 ng/kg/min, iv relative to before compound infusion. The format is functional.
In experiment [16] the test system is Rattus norvegicus. The experiment in a line: Induction of blood pressure in rat at 250 ng/kg/min, iv measured at 30 mins (reference value: 3.66 +/- 0.74 mmHg). The format is functional.
The test system of experiment [17] is Rattus norvegicus. The experiment in a line: Potentiation of angiotensin 2-induced blood pressure in rat at 250 ng/kg/min, iv relative to before compound infusion. The format is functional.
For experiment [18], the system named is Rattus norvegicus. Briefly: Induction of blood pressure in acute adrenalectomized rat at 250 ng/kg/min, iv measured at 3 mins in presence of propranolol (reference value: 0.78 +/- 0.26 mmHg). Format: functional.
In experiment [19] the test system is Rattus norvegicus. The experiment in a line: Potentiation of angiotensin 2-induced blood pressure in acute adrenalectomized rat at 250 ng/kg/min, iv in presence of propranolol relative to before compound infusion. Format: functional.
For experiment [20], the system named is Rattus norvegicus. Briefly: Induction of blood pressure in acute adrenalectomized rat at 250 ng/kg/min, iv measured at 30 mins in presence of propranolol (reference value: 3.66 +/- 0.74 mmHg). Format: functional.
Experiment [21] is filed under the species Rattus norvegicus. Briefly: Induction of pressor in vagotomized and ganglion-blocked rat assessed as initial pressor activity up to 10 ug/ml relative to angiotensin 2. The format is functional.

Each structure is given as a SMILES string. Non-standard residues stand in square brackets, D forms with d. Residues, ends and D or L forms follow the SMILES beside them. Sar = CNCC(=O)O Where only a bound is given, the exact number is not on record here.

As for `CC[C@H](C)[C@H](NC(=O)[C@@H]1CCCN1C(=O)[C@H](Cc1cnc[nH]1)NC(=O)[C@@H](NC(=O)[C@H](Cc1ccc(O)cc1)N(C)C(=O)[C@@H](NC(=O)[C@H](CCCNC(=N)N)NC(=O)CNC)C(C)C)[C@@H](C)CC)C(=O)O`, the Activity came to 21.6 mmHg with Rattus norvegicus [1]; 39.2 mmHg with Rattus norvegicus [2]; 10 mmHg in the experiment on Rattus norvegicus [3]; 8 mmHg in the experiment with Rattus norvegicus [5]; 0.34% in the experiment filed under Rattus norvegicus [7]; 0.11% in the experiment listed under Felis catus. Moreover, the Activity is given as 9.8 mmHg in the experiment with Rattus norvegicus [8] and 14.4 mmHg in the experiment with Rattus norvegicus [9]. Moreover, the pA2 – broadly, a measure of antagonist potency on a negative log scale – in [4] is reported as 9.16. Further, the figures for the Ratio in the experiment with Rattus norvegicus [6] and in the experiment with Rattus norvegicus [11] were 2.14 and 12.09, respectively. The Kb in [10] is 36.3 nM.

Consider `CC[C@H](C)[C@H](NC(=O)[C@H](Cc1ccc(O)cc1)NC(=O)[C@@H](NC(=O)[C@H](CCCN=C(N)N)NC(=O)CNC)C(C)C)C(=O)N[C@@H](Cc1c[nH]cn1)C(=O)N1CCC[C@H]1C(=O)N[C@H](C(=O)O)[C@@H](C)O` (H-[Sar]RVYIHPT-OH), for which the Activity with Rattus norvegicus [12] was 9.46 mmHg; in the experiment with Rattus norvegicus [13] it was 7.57 mmHg; in the experiment listed under Felis catus, 0%; in the experiment with Rattus norvegicus [14], 4.57 mmHg; in the experiment on Rattus norvegicus [16] it was 9.2 mmHg. Besides, the pA2 in [4] came out at 9. For the same compound, the Ratio is reported as 26.9 in the experiment with Rattus norvegicus [6] and 5.52 in the experiment on Rattus norvegicus [15].

Take `CC[C@H](C)[C@H](NC(=O)[C@@H]1CCCN1C(=O)[C@H](Cc1cnc[nH]1)NC(=O)[C@@H](NC(=O)[C@H](Cc1ccc(O)cc1)NC(=O)[C@@H](NC(=O)[C@H](CCCNC(=N)N)NC(=O)[C@H](CC(=O)O)NC)C(C)C)[C@@H](C)CC)C(=O)O`: the Activity with Rattus norvegicus [3] came out at 16.57 mmHg; with Rattus norvegicus [5], 10.14 mmHg; in the experiment listed under Rattus norvegicus [7], 0.76%; in the experiment filed under Felis catus it was 1.01%; in the experiment on Rattus norvegicus [8], 16.57 mmHg. In [4], this compound displayed a pA2 of 8.16. Further, the Ratio with Rattus norvegicus [6] was determined as 33.43. For the same compound, the Kb in experiment [10] is 1.82 nM.

In the case of `CC[C@H](C)[C@H](NC(=O)[C@H](Cc1ccc(O)cc1)NC(=O)[C@@H](NC(=O)[C@H](CCCNC(=N)N)NC(=O)CNC)C(C)C)C(=O)N[C@@H](Cc1cnc[nH]1)C(=O)N1CCC[C@H]1C(=O)N[C@@H](CO)C(=O)O` (H-[Sar]RVYIHPS-OH), the Activity in the experiment on Rattus norvegicus [3] amounted to 9.57 mmHg; with Rattus norvegicus [5], 9.57 mmHg; in the experiment filed under Rattus norvegicus [7], 0.66%; in the experiment filed under Felis catus, 0.05%; with Rattus norvegicus [8] it was 11.42 mmHg. Also, the pA2 in experiment [4] is 9.33. Further, the Ratio with Rattus norvegicus [6] worked out at 11.15. Besides, in [10], the Kb was 8.32 nM.

With `CC[C@H](C)[C@H](NC(=O)[C@@H]1CCCN1C(=O)[C@H](Cc1c[nH]cn1)NC(=O)[C@@H](NC(=O)[C@H](Cc1ccc(O)cc1)NC(=O)[C@@H](NC(=O)[C@H](CCCN=C(N)N)NC(=O)CNC)C(C)C)[C@@H](C)CC)C(=O)O`, the Activity in the experiment on Rattus norvegicus [12] turned out to be 17.81 mmHg; in the experiment with Rattus norvegicus [13], 8.9 mmHg; in the experiment listed under Felis catus it was 3%; with Rattus norvegicus [14] it was 1.8 mmHg; in the experiment with Rattus norvegicus [16], 14.81 mmHg. In addition, in experiment [4], the pA2 worked out at 9.5. For the same compound, the Ratio with Rattus norvegicus [15] was 6.04; with Rattus norvegicus [17], 27.79. The Kb in experiment [10] is 0.676 nM.

On to `CC[C@H](C)[C@H](NC(=O)[C@@H]1CCCN1C(=O)[C@H](Cc1c[nH]cn1)NC(=O)[C@H]([C@@H](C)CC)N(C)C(=O)[C@H](Cc1ccc(O)cc1)NC(=O)[C@@H](NC(=O)[C@H](CCCN=C(N)N)NC(=O)CNC)C(C)C)C(=O)O`, for which the Activity in the experiment on Rattus norvegicus [3] amounted to 23 mmHg; with Rattus norvegicus [5] it was 15.66 mmHg; in the experiment filed under Rattus norvegicus [7], 0.46%; in the experiment listed under Felis catus, 0.01%; with Rattus norvegicus [8], 22.8 mmHg. Also, the pA2 in [4] came to 9.31. In addition, the Ratio with Rattus norvegicus [6] is reported as 3.26. Besides, the Kb in [10] was 22.9 nM.

On to `CC[C@H](C)[C@H](NC(=O)[C@H](Cc1ccc(O)cc1)NC(=O)[C@@H](NC(=O)[C@H](CCCNC(=N)N)NC(=O)CNC)C(C)C)C(=O)N[C@@H](Cc1cnc[nH]1)C(=O)N1CCC[C@H]1C(=O)N(C)[C@H](C(=O)O)[C@@H](C)CC`, for which the Activity in the experiment on Rattus norvegicus [12] was 25.1 mmHg; with Rattus norvegicus [18], 21 mmHg; with Rattus norvegicus [3], 36 mmHg; with Rattus norvegicus [5] it was 25.1 mmHg; in the experiment filed under Rattus norvegicus [7], 1.06%; in the experiment with Rattus norvegicus [13], 24.66 mmHg. The Activity was determined as 0.1% in the experiment listed under Felis catus; 30.33 mmHg in the experiment with Rattus norvegicus [14]; 32 mmHg with Rattus norvegicus [8]; 32 mmHg in the experiment on Rattus norvegicus [16]; 17.71 mmHg in the experiment on Rattus norvegicus [20]. This compound gave a pA2 in [4] of 8. Besides, the Ratio turned out to be 2.99 in the experiment with Rattus norvegicus [6], 2.56 in the experiment with Rattus norvegicus [19], 2.53 in the experiment on Rattus norvegicus [15] and 2.99 in the experiment on Rattus norvegicus [17]. Further, in experiment [10], the Kb is 14.1 nM.

For `CC[C@H](C)[C@@H](C(=O)N[C@@H](Cc1cnc[nH]1)C(=O)N1CCC[C@H]1C(=O)N(C)[C@H](C(=O)O)[C@@H](C)CC)N(C)C(=O)[C@H](Cc1ccc(O)cc1)NC(=O)[C@@H](NC(=O)[C@H](CCCNC(=N)N)NC(=O)CNC)C(C)C`, the Activity in the experiment with Rattus norvegicus [1] is 3.16 mmHg; in the experiment with Rattus norvegicus [2], 2.5 mmHg; in the experiment with Rattus norvegicus [3] it was 3.2 mmHg; in the experiment filed under Rattus norvegicus [21] it was 0%; in the experiment on Rattus norvegicus [5], 1 mmHg; in the experiment listed under Felis catus, less than 0.01%. Moreover, the Activity in the experiment on Rattus norvegicus [8] turned out to be 7 mmHg; with Rattus norvegicus [9] it was 7.33 mmHg. In addition, the pA2 in experiment [4] came out at 8. In addition, the Ratio in the experiment with Rattus norvegicus [6] is recorded as 0.62; in the experiment on Rattus norvegicus [11] it was 0.82. In experiment [10], the Kb was 12.9 nM.

Take `CC[C@H](C)[C@H](NC(=O)[C@H](Cc1ccc(O)cc1)NC(=O)[C@@H](NC(=O)[C@H](CCCNC(=N)N)NC(=O)CNC)C(C)C)C(=O)N[C@@H](Cc1cnc[nH]1)C(=O)N1CCC[C@H]1C(=O)N[C@@H](CCSC)C(=O)O` (H-[Sar]RVYIHPM-OH): the Activity in the experiment on Rattus norvegicus [3] was 36.75 mmHg; in the experiment on Rattus norvegicus [5], 36.75 mmHg; in the experiment filed under Rattus norvegicus [7], 3.74%; in the experiment filed under Felis catus, less than 0.01%; with Rattus norvegicus [8], 32.5 mmHg. Further, the pA2 in experiment [4] is given as 9.16. The Kb in experiment [10] is 2.34 nM.
